The values that follow come from US20250171459A1, “2-METHYL-4',5'-DIHYDROSPIRO[PIPERIDINE-4,7'-THIENO[2,3-C]PYRAN] DERIVATIVES AS INHIBITORS OF APOL1 AND METHODS OF USING SAME” (Vertex Pharmaceuticals Incorporated, priority 2022, published 2025).

The target of the test is T1, APOL1 (Homo sapiens, UniProt O14791).
T1 sequence (O14791 1-398 S342G/I384M): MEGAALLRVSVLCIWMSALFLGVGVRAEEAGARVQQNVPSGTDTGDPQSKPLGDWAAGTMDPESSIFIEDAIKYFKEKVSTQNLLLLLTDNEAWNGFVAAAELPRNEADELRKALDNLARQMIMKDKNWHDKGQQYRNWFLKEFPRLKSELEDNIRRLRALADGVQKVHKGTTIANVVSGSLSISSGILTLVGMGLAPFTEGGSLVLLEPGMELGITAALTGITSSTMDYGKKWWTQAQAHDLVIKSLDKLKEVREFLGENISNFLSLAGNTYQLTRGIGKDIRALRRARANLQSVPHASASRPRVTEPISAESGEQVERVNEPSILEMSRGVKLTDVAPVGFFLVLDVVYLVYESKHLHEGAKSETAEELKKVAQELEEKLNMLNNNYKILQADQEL
Description: MultiTox-Fluor Multiplex Cytotoxicity Assay in tet-inducible APOL1 T-REx-HEK293 cells (cell rescue, ratio of dead to live cells). Format: cell-based. Particulars: tet-inducible transgenic APOL1 T-REx-HEK293 cell lines, 50 ng/mL tet, 24 hours; read-out: IP50 (i.e., IC50 for cell proliferation). In outline:
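T-REx-HEK293 cells with tet-inducible APOL1 were treated with compound (10 μM top, 10-point 3-fold dilution, duplicate) plus 50 ng/mL tetracycline for 24 h at 37° C, in DMEM with 2% tet-free FBS. MultiTox-Fluor protease signals gave a dead/live ratio, normalized to no tet (100% viability) and tet alone (0%).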

Turning to `C[C@H]1C[C@@]2(CCN1CC(O)c1ccccc1)OCCc1cc(CC(F)F)sc12` (stereo partly drawn) [Compound 594, 2-[(2′S, 7R)-2-(2,2-difluoroethyl)-2′-methyl-spiro[4,5-dihydrothieno[2,3-c]pyran-7,4′-piperidine]-1′-yl]-1-phenyl-ethanol], the IC50 was under 100 nM.

As to `C[C@H]1C[C@@]2(CCN1C1CCCC1O)OCCc1cc(CC(F)F)sc12` (stereo partly drawn) [Compound 595], the IC50 was under 100 nM.

As for `C[C@H]1C[C@@]2(CCN1CC(O)C(N)=O)OCCc1cc(CC(F)F)sc12` (stereo partly drawn) [Compound 596], the IC50 is under 100 nM.

As for `C[C@H]1C[C@@]2(CCN1C1COCC1O)OCCc1cc(CC(F)F)sc12` (stereo partly drawn) [Compound 597], the IC50 was under 100 nM.

With `C[C@H]1C[C@@]2(CCN1C[C@@H](O)CO)OCCc1cc(CC(F)F)sc12` [Compound 598], the IC50 was in the range of 100 to 500 nM.

With `C[C@H]1C[C@@]2(CCN1CCO)OCCc1cc(CC(F)F)sc12` [Compound 599], the IC50 fell in the range of 100 to 500 nM.

`C[C@H]1C[C@@]2(CCN1CC1(O)CCOCC1)OCCc1cc(CC(F)F)sc12` [Compound 600]: the IC50 was in the range of 100 to 500 nM.

For `C[C@H]1C[C@@]2(CCN1CC(O)C(F)(F)F)OCCc1cc(CC(F)F)sc12` (stereo partly drawn) [Compound 601], the IC50 was under 100 nM.

Turning to `C[C@H]1C[C@@]2(CCN1CC(O)c1ccc(F)cc1)OCCc1cc(CC(F)F)sc12` (stereo partly drawn) [Compound 602], the IC50 is under 100 nM.

`C[C@H]1C[C@@]2(CCN1CC(C)(C)O)OCCc1cc(CC(F)F)sc12` [Compound 603]: the IC50 was 100 to 500 nM.

As to `C[C@H]1C[C@@]2(CCN1C1CCCC1O)OCCc1cc(CC(F)F)sc12` (stereo partly drawn) [Compound 604], the IC50 fell in the range of 100 to 500 nM.

`C[C@H]1C[C@@]2(CCN1CC(O)c1ccc(F)c(F)c1)OCCc1cc(CC(F)F)sc12` (stereo partly drawn) [Compound 605]: the IC50 lay within 100 to 500 nM.

Consider `C[C@H]1C[C@@]2(CCN1CC1(O)CCS(=O)(=O)CC1)OCCc1cc(CC(F)F)sc12` [Compound 606], for which the IC50 was in the range of 100 to 500 nM.

In the case of `C[C@H]1C[C@@]2(CCN1C[C@H](O)CO)OCCc1cc(CC(F)F)sc12` [Compound 607], the IC50 lay in the range of 100 to 500 nM.

`C[C@H]1C[C@@]2(CCN1C1COCC1O)OCCc1cc(CC(F)F)sc12` (stereo partly drawn) [Compound 609]: the IC50 was under 100 nM.

`C[C@H]1C[C@@]2(CCN1C[C@@H](O)C(N)=O)OCCc1cc(CC(F)F)sc12` [Compound 610, (2R)-3-[(2′S, 7R)-2-(2,2-difluoroethyl)-2′-methyl-spiro[4,5-dihydrothieno[2,3-c]pyran-7,4′-piperidine]-1′-yl]-2-hydroxy-propanamide]: the IC50 is under 100 nM.

Turning to `C[C@H]1C[C@@]2(CCN1C[C@H](O)C(N)=O)OCCc1cc(CC(F)F)sc12` [Compound 611, (2S)-3-[(2′S, 7R)-2-(2,2-difluoroethyl)-2′-methyl-spiro[4,5-dihydrothieno[2,3-c]pyran-7,4′-piperidine]-1′-yl]-2-hydroxy-propanamide], the IC50 was under 100 nM.

With `CNC(=O)[C@@H](O)CN1CC[C@]2(C[C@@H]1C)OCCc1cc(CC(F)F)sc12` [Compound 612, (2S)-3-[(2′S, 7R)-2-(2,2-difluoroethyl)-2′-methyl-spiro[4,5-dihydrothieno[2,3-c]pyran-7,4′-piperidine]-1′-yl]-2-hydroxy-N-methyl-propanamide], the IC50 is 100 to 500 nM.

`CC(O)CN1CC[C@]2(C[C@@H]1C)OCCc1cc(CC(F)F)sc12` (stereo partly drawn) [Compound 613, 1-((2S,4R)-2′-(2,2-difluoroethyl)-2-methyl-4′,5′-dihydrospiro[piperidine-4,7′-thieno[2,3-c]pyran]-1-yl)propan-2-ol]: the IC50 lay within 100 to 500 nM.

On to `COCCN1CC[C@]2(C[C@@H]1C)OCCc1cc(CC(F)F)sc12` [Compound 614], for which the IC50 was in the range of 100 to 500 nM.

For `C[C@H]1C[C@@]2(CCN1CCCO)OCCc1cc(CC(F)F)sc12` [Compound 615], the IC50 was in the range of 100 to 500 nM.

Take `C[C@H]1C[C@@]2(CCN1CC(F)F)OCCc1cc(CC(F)F)sc12` [Compound 616]: the IC50 fell in the range of 500 to 1000 nM.

Take `C[C@H]1C[C@@]2(CCN1CC1CC1(F)F)OCCc1cc(CC(F)F)sc12` (stereo partly drawn) [Compound 617]: the IC50 is under 100 nM.

In the case of `Cc1nc(CN2CC[C@]3(C[C@@H]2C)OCCc2cc(CC(F)F)sc23)c(C)o1` [Compound 618], the IC50 was in the range of 500 to 1000 nM.

In the case of `C[C@H]1C[C@@]2(CCN1CC1CCC(=O)N1)OCCc1cc(CC(F)F)sc12` (stereo partly drawn) [Compound 619], the IC50 was 100 to 500 nM.

As to `C[C@H]1C[C@@]2(CCN1CCC(C)(C)O)OCCc1cc(CC(F)F)sc12` [Compound 620], the IC50 was in the range of 100 to 500 nM.

Turning to `C[C@H]1C[C@@]2(CCN1CC1CNC(=O)C1)OCCc1cc(CC(F)F)sc12` (stereo partly drawn) [Compound 621], the IC50 was under 100 nM.

Turning to `C[C@H]1C[C@@]2(CCN1CC(N)=O)OCCc1cc(CC(F)F)sc12` [Compound 622], the IC50 was 500 to 1000 nM.

Consider `C[C@H]1C[C@@]2(CCN1CCN1CCCC1=O)OCCc1cc(CC(F)F)sc12` [Compound 623], for which the IC50 lay within 500 to 1000 nM.

For the compound `C[C@H]1C[C@@]2(CCN1CC(=O)N(C)C)OCCc1cc(CC(F)F)sc12` [Compound 624], the IC50 lay in the range of 500 to 1000 nM.

In the case of `C#CCN1CC[C@]2(C[C@@H]1C)OCCc1cc(Cl)sc12` [Compound 625, (2′S, 7R)-2-chloro-2′-methyl-1′-prop-2-ynyl-spiro[4,5-dihydrothieno[2,3-c]pyran-7,4′-piperidine]], the IC50 fell in the range of 500 to 1000 nM.

In the case of `C[C@H]1C[C@@]2(CCN1Cc1cn(CCO)nn1)OCCc1cc(Cl)sc12` [Compound 627], the IC50 lay in the range of 100 to 500 nM.

Turning to `C[C@H]1C[C@@]2(CCN1Cc1cn(CC(CO)CO)nn1)OCCc1cc(Cl)sc12` [Compound 628], the IC50 was 100 to 500 nM.

Turning to `C[C@H]1C[C@@]2(CCN1Cc1cn(CC(C)(CO)CO)nn1)OCCc1cc(Cl)sc12` [Compound 629], the IC50 is 100 to 500 nM.

Take `C[C@H]1C[C@@]2(CCN1Cc1cnn(CCO)c1)OCCc1cc(Cl)sc12` [Compound 632]: the IC50 was under 100 nM.

In the case of `C[C@H]1C[C@@]2(CCN1Cc1cnn(CC3(C)COC3)c1)OCCc1cc(Cl)sc12` [Compound 633], the IC50 was under 100 nM.

For the compound `C[C@H]1C[C@@]2(CCN1Cc1cnn(CC(C)(CO)CO)c1)OCCc1cc(Cl)sc12` [Compound 634], the IC50 was under 100 nM.

As to `CC(=O)Nc1ccc(CN2CC[C@]3(C[C@@H]2C)OCCc2cc(Cl)sc23)cc1` [Compound 635], the IC50 was under 100 nM.

Consider `C[C@H]1C[C@@]2(CCN1Cc1ccc(N(CCO)CCO)cc1)OCCc1cc(Cl)sc12` [Compound 636], for which the IC50 is under 100 nM.

For the compound `Cc1cn2nc(CN3CC[C@]4(C[C@@H]3C)OCCc3cc(Cl)sc34)cc2c(NC2CC2)n1` [Compound 637], the IC50 was under 100 nM.

With `C[C@H]1C[C@@]2(CCN1Cc1ccc(NS(C)(=O)=O)cc1)OCCc1cc(Cl)sc12` [Compound 638], the IC50 was under 100 nM.

For `C[C@H]1C[C@@]2(CCN1Cc1cccnc1)OCCc1cc(Cl)sc12` [Compound 639], the IC50 was under 100 nM.

For `COCCc1ncc(CN2CC[C@]3(C[C@@H]2C)OCCc2cc(Cl)sc23)cn1` [Compound 640], the IC50 was in the range of 100 to 500 nM.

For the compound `C[C@H]1C[C@@]2(CCN1Cc1cccc(NS(C)(=O)=O)c1)OCCc1cc(Cl)sc12` [Compound 641], the IC50 lay within 100 to 500 nM.

Take `C[C@H]1C[C@@]2(CCN1CCCn1cccn1)OCCc1cc(Cl)sc12` [Compound 642]: the IC50 was in the range of 500 to 1000 nM.

As to `CC(O)CCN1CC[C@]2(C[C@@H]1C)OCCc1cc(Cl)sc12` (stereo partly drawn) [Compound 643], the IC50 is 500 to 1000 nM.

Consider `C[C@H]1C[C@@]2(CCN1Cc1ccc(OCCO)cc1)OCCc1cc(Cl)sc12` [Compound 644], for which the IC50 is under 100 nM.

As for `C[C@H]1C[C@@]2(CCN1Cc1ccncc1)OCCc1cc(Cl)sc12` [Compound 645], the IC50 is 100 to 500 nM.

With `C[C@H]1C[C@@]2(CCN1Cc1cccc(OCCO)c1)OCCc1cc(Cl)sc12` [Compound 646], the IC50 is under 100 nM.

As to `C[C@H]1C[C@@]2(CCN1Cc1ccc(N3CCCC3=O)cc1)OCCc1cc(Cl)sc12` [Compound 647], the IC50 is under 100 nM.

`C[C@H]1C[C@@]2(CCN1Cc1ccc(OCC(=O)N3CCOCC3)cc1)OCCc1cc(Cl)sc12` [Compound 648]: the IC50 is under 100 nM.

Take `Cc1cncc(CN2CC[C@]3(C[C@@H]2C)OCCc2cc(Cl)sc23)c1` [Compound 649]: the IC50 was in the range of 100 to 500 nM.

For `C[C@H]1C[C@@]2(CCN1Cc1cn(-c3ncccn3)cn1)OCCc1cc(Cl)sc12` [Compound 650], the IC50 fell in the range of 100 to 500 nM.

On to `COc1ncc(CN2CC[C@]3(C[C@@H]2C)OCCc2cc(Cl)sc23)cn1` [Compound 651], for which the IC50 is under 100 nM.

As to `CNC(=O)c1cccc(CN2CC[C@]3(C[C@@H]2C)OCCc2cc(Cl)sc23)c1` [Compound 652], the IC50 lay in the range of 100 to 500 nM.

`CCc1ncc(CN2CC[C@]3(C[C@@H]2C)OCCc2cc(Cl)sc23)cn1` [Compound 653]: the IC50 fell in the range of 100 to 500 nM.

On to `C[C@H]1C[C@@]2(CCN1Cc1ccc(S(C)(=O)=O)cc1)OCCc1cc(Cl)sc12` [Compound 654], for which the IC50 was in the range of 100 to 500 nM.

With `COc1cc(OCC(N)=O)ccc1CN1CC[C@@]2(C[C@H]1C)OCCc1cc(Cl)sc12` [Compound 655], the IC50 was under 100 nM.

With `C[C@H]1C[C@@]2(CCN1Cc1cccc(OCC(N)=O)c1)OCCc1cc(Cl)sc12` [Compound 656], the IC50 lay in the range of 100 to 500 nM.

Regarding `COc1ccc(CN2CC[C@]3(C[C@@H]2C)OCCc2cc(Cl)sc23)cc1OCC(N)=O` [Compound 657], the IC50 was under 100 nM.
